Data published in patent US12208080B2, “Compositions and methods for modulation of extracellular vesicle release and treatment of neurological disorders” (GEORGE MASON RESEARCH FOUNDATION, INC., priority 2018, dated 2025).
Structures can show the parent of a compound that is named as a salt.

Legend:
Assay type in all cases: cell-based
[1] = system: HTLV-1 infected T-cells (HUT 102); experiment: EV release from HTLV-1 infected T-cells, Western blot for Tax, CD63, CD9; conditions: 10 μM AZT, 10K units IFN-α or both, 5 days, FIG. 6
Method: HTLV-1 infected T-cells (HUT 102) were treated with 10 μM AZT, 10K units of IFN-α, or a combination of the two for 5 days. Resulting supernatants were enriched for extracellular vesicles using NT80/82 and analyzed by Western blot for the presence of Tax, CD63, CD9, and Actin.
The incorporation of the human T-lymphotropic virus type 1 (HTLV-1) protein, Tax, into extracellular vesicles has been implicated in enhanced survival of recipient cells thereby contributing to a cancer phenotype. Applicant examined the effect of Azidothymidine (AZT) and interferon-α (IFN-α), both therapeutics commonly used in the treatment of HTLV-1, on the release of EVs from HTLV-1 infected cells. Here, HTLV-1 infected T-cells (HUT 102) were treated with 10 μM AZT, 10K units of IFN-α, or a combination of the two for 5 days. Resulting supernatants were enriched for extracellular vesicles using NT80/82 and analyzed by Western blot for the presence of Tax, CD63, CD9, and Actin.

[2] = system: autophagy proteins (p62, LC3, ATG12-ATG5, ATG12, Beclin-1) in U1 cells; experiment: Autophagy protein profile, CBD versus autophagy drugs, in U1 cells and their EVs (Western blot); conditions: 5 days; for EV-associated LC3 II / EV-associated LC3 I / EV-associated p62: Bafilomycin A1 50 nM, SB 203580 20 μM, Wortmannin 2 nM; for EV-associated LC3 II: vs untreated infected control; for EV-associated LC3 I / EV-associated p62: CBD 10 μM, lower panel
Method: FIGS. 18A-18B are gels showing CBD promotes autophagy turnover, resulting in a decrease in extracellular autophagosomal secretion. A) U1 cells (1×10^6) were treated±CBD (10 μM) for the following incubation periods: 0, 6, 24, and 48 hours. Cells were pelleted and lysed, exosomes from supernatants were enriched with NT80/82 beads overnight at 4° C. Samples were run through SDS-PAGE and western blotted for autophagy proteins (p62 and LC3), and Actin. B) U1 cells (1×10^6) were treated±10 μM CBD (every day), Rapamycin (50 nM), INK128 (50 nM), Bafilomycin A1 (50 nM), SB 203580 (20 μM), Wortmannin (2 nM) for a 5-day incubation period. Cells were pelleted and lysed, exosomes from supernatants were enriched using NT80/82 beads overnight at 4° C. Samples were run through SDS-PAGE and western blotted for autophagy proteins (p62, LC3, ATG12-ATG5, ATG12, Beclin-1), and Actin.
FIGS. 21A-21K are graphs showing normalized densitometry analysis of CBD and autophagy drug treatment on HIV-1 infected monocytes. Intracellular (A) p62, (B) LC3 I, (C) LC3 II, (D) ATG12-ATG5 complex, (E) ATG12, and (F) Beclin-1, and extracellular (G) p62, (H) LC3 I, (I) LC3 II, (J) ATG12-ATG5 complex, and (K) Beclin-1 densitometry counts were calculated from the Western blot data in FIG. 5B, normalized to respective intracellular and extracellular Actin levels, and plotted.
To determine the specific points at which CBD inhibits intracellular and extracellular autophagosome formation and secretion, we compared CBD treatment of U1 monocytes with known inhibitors of different points in the autophagy pathway. Cell viability was assessed among a panel of titrated autophagy drugs and the least toxic concentration per drug was utilized (FIG. 20). We treated U1 cells with CBD (10 μM) every day, Rapamycin (50 nM), INK128 (50 nM), Bafilomycin A1 (50 nM), SB 203580 (20 μM), or Wortmannin (2 nM) for 5 days. Our rationale for using these drugs was that they regulate different steps of autophagy including nucleation inhibition by inhibiting MTOR activity (Rapamycin, INK128) or by inhibiting pre-autophagosomal VPS34 complex activity (Wortmannin, SB 203580), and autophagosome-lysosome fusion inhibition (Bafilomycin A1). Therefore, a side-by-side comparison to CBD would potentially allow for a better definition of which step of autophagosome formation is primarily regulated by CBD. U1 cells were treated with the autophagy regulators and harvested along with their corresponding supernatants for further analysis using Western blot against p62, LC3, ATG12-ATG5 complex, free ATG12, Beclin-1, and Actin. Results in FIG. 18B (intracellular proteins, top panel) show autophagy protein profiles associated with the various autophagy regulators. […] The corresponding supernatants were enriched for EVs and also analyzed for the presence of autophagy proteins.

[3] = system: ESCRT pathway proteins (VPS4); experiment: Western blot of ESCRT pathway proteins in U1 whole cell extracts; conditions: 0.1, 1, 10 μM, 5 days, FIG. 5B
Method: U1 cells were pretreated with cART (45 μM) for 3 days followed by an additional dose of cART and tetracycline antibiotics (10 nM) for 5 days. Cells were lysed, and extracts were used for Western blot analysis for ESCRT proteins [ESCRT-1 (TSG101), -11 (EAP20, EAP45), -III (CHMP6), and exit (VPS4)] and Actin levels. […]
U1 cells were treated with a titration of ethylene glycol-bis(p-aminoethyl ether)-N,N,N′,N′-tetraacetic acid (EGTA) (0.1, 1, and 10 μM) for 5 days and whole cell extracts were analyzed by Western blot for ESCRT pathway proteins and Actin.
Tetracycline class antibiotics including tetracycline, oxytetracycline, minocycline, doxycycline, methacycline, and demeclocycline have the potential to mitigate EV-associated pathogenesis by also modulating EV release. […] The tetracycline antibiotic family are chelators of divalent cations, including Ca2+ and Mg2+. Therefore, Applicant also tried to determine whether the chelating property of Oxytetracycline could possibly be responsible for the manipulation of the ESCRT pathway proteins levels.

[4] = system: RNA polymerase II (Pol II) loading; experiment: Chromatin immunoprecipitation of Pol II, qPCR for TAR DNA; conditions: U1; CBD 10 μM, Flavo 50 nM; 2-hour and 6-hour; FIG. 15C
Method: FIGS. 15A-15C are graphs and gels showing cannabidiols lower intracellular viral transcription and downstream viral products. U1 cells (1×10^6) were treated with a titration of CBD (1, 5, 10 μM) and THC (1, 5, 10 μg/mL) every day for 5 days. A) Intracellular RNA was isolated and analyzed through RT-qPCR for HIV-1 viral transcripts TAR and env. Each bar represents an average of three independent replicates. B) U1 cells (2×10^6) were treated with a titration of CBD (1, 5, 10 μM) every day for 5 days. Cells pellets were lysed, run through SDS-PAGE, and western blotted for (p-)/NF-κB, autophagosomal markers (p63, LC3), EV biogenesis marker VPS4, viral markers (gp120, Nef, p24), and Actin. C) U1 cells (5×10^6) were treated±CBD (10 μM) and Flavopiridol hydrochloride (50 nM; indicated as Flavo) and incubated for the following time points: 0 minutes, 2 hours and 6 hours. Cells were cross-linked with 1% formaldehyde solution and ChIP-ed for IgG and Pol II. ChIP DNA samples were analyzed via qPCR for TAR and env. Student's t-test was used for statistical analysis, where *p-value≤0.05; **p-value≤0.01, ***p-value≤0.001. […]
U1 monocytes were treated with CBD (10 μM) and Flavo (50 nM) for short periods (0, 2 and 6 hours) due to the fact that HIV-1 transcription activity is a rapid event that can be scored using chromatin immunoprecipitation (ChIP) assay for factor occupancy. […]

[5] = CBD 10 μM every day, Rapamycin 50 nM, INK128 50 nM, FIG. 18B top panel

## Cc1cn([C@H]2C[C@H](N=[N+]=[N-])[C@@H](CO)O2)c(=O)[nH]c1=O [AZT, 3′-azido-2′3′-di deoxythymidine]
[1]
  amount of vesicles released (CD63 and CD9): increase in the amount of vesicles release

## CO/C1=C\C(C)=C\[C@@H](C)[C@@H](O)[C@@H](C)C/C(C)=C/C=C/[C@H](OC)[C@@H]([C@@H](C)[C@@H](O)[C@H](C)[C@@]2(O)C[C@@H](O)[C@H](C)[C@@H](C(C)C)O2)OC1=O [Bafilomycin A1]
[2]
  EV-associated LC3 II: elevated levels
[2]; Rapamycin 50 nM, INK128 50 nM
  EV-associated LC3 I: elevated levels
  EV-associated p62: sustained levels

## O=C(O)CN(CCOCCOCCN(CC(=O)O)CC(=O)O)CC(=O)O [EGTA, ethylene glycol-bis(p-aminoethyl ether)-N,N,N′,N′-tetraacetic acid]
[3]
  levels of measured ESCRT proteins: no change

## CN1CC[C@H](c2c(O)cc(O)c3c(=O)cc(-c4ccccc4Cl)oc23)[C@H](O)C1 [Flavo, Flavopiridol hydrochloride hydrate]
[4]
  Pol II-associated TAR DNA versus untreated: statistically significant decreases

## CC(C)n1nc(-c2ccc3oc(N)nc3c2)c2c(N)ncnc21 [INK128]
[2]; [5]
  intracellular ATG12-ATG5: low levels
  intracellular Beclin-1: high levels
  intracellular LC3 I: low levels
[2]; Rapamycin 50 nM, INK128 50 nM
  EV-associated LC3 I: reduction
  EV-associated p62: reduction

## C[S+]([O-])c1ccc(-c2nc(-c3ccncc3)c(-c3ccc(F)cc3)[nH]2)cc1 (stereo not drawn) [SB 203580]
[2]
  EV-associated LC3 II: elevated levels
[2]; Rapamycin 50 nM, INK128 50 nM
  EV-associated LC3 I: elevated levels
  EV-associated p62: sustained levels

## IFN-α
[1]
  amount of vesicles released (CD63 and CD9): decreases the amount of vesicles released
